Here are results for one substance from publication PMC3770654, “Gastric Antimicrobial Peptides Fail to Eradicate Helicobacter pylori Infection Due to Selective Induction and Resistance” (PLoS ONE, 2013).

Type in all cases: cell-based
One assay deals with E. coli ATCC 25922. Briefly: Flow cytometric viability assay with membrane potential sensitive dye DiBAC4(3). As to the method:
(§1) The clinical isolate H. pylori KaE1 and the reference strains H. pylori DSM 9691, DSM 10242 and DSM 21031 were tested for susceptibility towards defensins, LL37 and elafin (amino acid sequences Table S1). The strain H. pylori DSM 10242 is positive for the virulence factors VacA and CagA. As control strain for antimicrobial activity served the sensitive E. coli ATCC 25922.
(§2) Bacterial viability after incubation with antimicrobial peptides or biopsy extracts was analyzed with the membrane potential sensitive dye DiBAC4(3) (bis-(1,3-dibutylbarbituric acid) trimethine oxonol) (Invitrogen, Carlsbad, CA, USA) as described previously. Briefly, 1.5x10^6 mid-logarithmic-phase bacteria/ml of H. pylori or E. coli in Schaedler Broth 1:6 were incubated with 20 µg/ml HBD1-4 (Peptide Institute, Osaka, Japan), elafin (Proteo Biotech, Kiel, Germany for FACS analysis and RDA and elafin from Peptide Institute, Osaka for CFU determination), with LL37 (Innovagen, Lund, Sweden) or with 10 µg total protein of antrum biopsy extracts at 37°C. After 90 minutes 1 µg/ml DiBAC4(3) was added to the suspensions and further incubated for 10 minutes. Then, the suspensions were centrifuged with 4500 x g for 10 minutes, pellets resuspended in 300 µl PBS and bacterial fluorescence was analyzed by a FACSCalibur^TM (BD, Sparks, USA), using Cell Quest software (BD, Sparks, USA). In each sample 10000 bacterial events were analyzed for green fluorescence and the antimicrobial activity was determined as percentage of depolarized, fluorescent bacteria. Inhibition of bacterial growth was tested by plating aliquots on Columbia blood agar and incubating at 37 C° for 2 days in a microaerophilic atmosphere with CampyGen (Oxoid, Hampshire, UK). Then colony forming units (CFU) were counted.
In general terms: In flow cytometry, cells or beads pass a laser one at a time.

Assay [1] has as its system H. pylori KaE1, DSM 9691, DSM 10242 and DSM 21031. Briefly: Flow cytometric viability assay with DiBAC4(3), four H. pylori strains. As to the method:
as §1
(§3) H. pylori strains were cultured on Columbia blood agar at 37 C° for 2 days in a microaerophilic atmosphere with CampyGen (Oxoid, Hampshire, UK). Subsequently the bacteria were suspended in Schaedler Broth (BD, Sparks, USA) diluted 1:6 with aqua dest. for incubation with antimicrobial peptides.
as §2

The subject of the next assay is H. pylori DMS 9691. Briefly: Plating on Columbia blood agar with CFU counting. Particulars: peptide 20 µg/ml, means of two independent experiments, control 8.85 x 10^5. As to the method: as §3, §2
The test system of the next assay is H. pylori DSM 10242. Nature of the assay: Plating on Columbia blood agar with CFU counting. Particulars: peptide 20 µg/ml, means of two independent experiments, control 6.10 x 10^5. As to the method: as §3, §2
Another assay relates to H. pylori DSM 21031. Nature of the assay: Plating on Columbia blood agar with CFU counting. The settings on record: peptide 20 µg/ml, means of two independent experiments, control 7.45 x 10^5. As to the method:
as §3, §2

The next assay concerns H. pylori KaE. Briefly: Plating on Columbia blood agar with CFU counting. The settings on record: peptide 20 µg/ml, means of two independent experiments, control 1.42 x 10^6. As to the method: as §3, §2
For assay [2], the system named is H. pylori KaE1, DSM 9691, DSM 10242 and DSM 21031. Nature of the assay: Radial diffusion assay, four H. pylori strains. Particulars: all four Helicobacter strains; 20 µg peptide per well, 3 days, 37 °C, microaerophilic. As to the method:
Additionally to determine inhibition of bacterial growth we performed radial diffusion assays with a modified protocol of the procedure from Robert Lehrer et al.. Briefly, H. pylori was grown on Columbia blood agar (BD, Sparks, USA), suspended in Brain Heart Infusion diluted 1:5 with aqua dest. and plated on an agar containing 20% brain heart infusion with 5% fetal calf serum. Wells with 3 mm diameter were punched into the agar and peptides were applied equivalent to the flow cytometric assay in a concentration of 20 µg per well. The agar plates were incubated for 3 days at 37 °C in a microaerophilic atmosphere with CampyGen.

The next assay deals with P. aeruginosa. Nature of the assay: Killing of P. aeruginosa by elafin (data not shown).

In the case of “Ala - Gln - Glu - Pro - Val - Lys - Gly - Pro - Val - Ser - Thr - Lys - Pro - Gly - Ser - Cys - Pro - Ile - Ile - Leu - Ile - Arg - Cys - Ala - Met - Leu - Asn - Pro - Pro - Asn - Arg - Cys - Leu - Lys - Asp - Thr - Asp - Cys - Pro - Gly - Ile - Lys - Lys - Cys - Cys - Glu - Gly - Ser - Cys - Gly - Met - Ala - Cys - Phe - Val - Pro - Gln (disulfide) [Elafin, epithelial antiprotease elafin (PI3), cationic, 4 disulphide bridges; Proteo Biotech or Peptide Institute]”, the depolarized bacteria in the assay on E. coli ATCC 25922 (20 µg/ml peptide, 1.5x10^6 bacteria/ml in Schaedler Broth 1:6, 37°C, 90 minutes, then DiBAC4(3) 10 minutes, 10000 events) is given as 4%; in assay [1] (all 4 H. pylori strains, 20 µg/ml peptide, Schaedler Broth 1:6, 37°C, 90 minutes, DiBAC4(3)) it was “less than 5%”. Besides, the bactericidal effect result is “no bactericidal effect” in the assay with E. coli ATCC 25922 (E. coli, elafin peptides from different companies) and “no bactericidal effect” in assay [1] (H. pylori, elafin peptides from different companies). Further, the Colony forming units with H. pylori DMS 9691 is given as 9.59 x 10^5 CFU/ml; in the assay with H. pylori DSM 10242, 4.85 x 10^5 CFU/ml; in the assay on H. pylori DSM 21031, 6.82 x 10^5 CFU/ml; with H. pylori KaE, 1.29 x 10^6 CFU/ml. The “zones of inhibition in radial diffusion assay” value in assay [2] is listed as “no zones of inhibition”. Moreover, the “killing of P. aeruginosa” value in the assay with P. aeruginosa is “limited killing”.
